From patent US8841321B2, “Quinoline derivatives as antibacterial agents” (Janssen Pharmaceutica NV, priority 2005, dated 2014)
Converted amounts (≈) assume the structure as drawn.

What was measured:
Assay in all cases: Microtitre plate assay, IC90 determination
Assay type in all cases: cell-based
[1] = tested on: SPY 8668 (Streptococcus pyogens (ATCC8668)); conditions: for IC90: Streptococcus, ATCC8668, Streptococcus pyogens (ATCC8668), read-out: IC90 (μg/ml) SPY 8668; for IC90 (μg/ml) SPY 8668: Streptococcus pyogens (ATCC8668)
[2] = tested on: STA 29213 (Staphylococcus aureus (ATCC29213)); conditions: for IC90 (μg/ml) STA 29213: Staphylococcus aureus (ATCC29213)
How it was run: (§1)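 Growth-inhibition endpoint: resazurin added 3 h after inoculation, plates incubated overnight, fluorescence at 530/590 nm after 24 h at 37 °C. Inocula of roughly 10–60 CFU per well in Mueller-Hinton medium; compounds titrated five-fold. IC90 reported as μg/ml.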

[3] = tested on: SPN 6305 (Streptococcus pneumoniae (ATCC6305)); conditions: for IC90 (μg/ml) SPN 6305: Streptococcus pneumoniae (ATCC6305)
How it was run: as §1

[4] = tested on: PAE 27853 (Pseudomonas aeruginosa (ATCC27853)); conditions: for IC90: Pseudomonas aeruginosa, ATCC27853, Pseudomonas aeruginosa (ATCC27853), read-out: IC90 (μg/ml) PAE 27853; for IC90 (μg/ml) PAE 27853: Pseudomonas aeruginosa (ATCC27853)
[5] = tested on: EFA 29212 (Enterococcus faecalis (ATCC29212)); conditions: for IC90: Enterococcus faecalis, ATCC29212, Enterococcus faecalis (ATCC29212), read-out: IC90 (μg/ml) EFA 29212; for IC90 (μg/ml) EFA 29212: Enterococcus faecalis (ATCC29212)

SMILES	IC90 [1]	IC90 (μg/ml) STA 29213 [2]	IC90 (μg/ml) SPN 6305 [3]	IC90 [4]	IC90 [5]	IC90 (μg/ml) SPY 8668 [1]	IC90 (μg/ml) PAE 27853 [4]	IC90 (μg/ml) EFA 29212 [5]	IC90 ([2]; Staphylococcus aureus, ATCC29213, Staphylococcus aureus (ATCC29213), read-out: IC90 (μg/ml) STA 29213)	IC90 ([3]; Streptococcus pneumoniae, ATCC6305, Streptococcus pneumoniae (ATCC6305), read-out: IC90 (μg/ml) SPN 6305)
COc1nc2ccc(Br)cc2cc1C(c1ccccc1)C(O)(CCCCCN(C)C)c1ccc2ccccc2c1 (stereo not drawn) [Compound 59]	2.12 µg/mL (≈ 3.55 µM)	0.8 µg/mL (≈ 1.34 µM)	0.84 µg/mL (≈ 1.41 µM)	1.89 µg/mL (≈ 3.16 µM)	1.89 µg/mL (≈ 3.16 µM)	–	–	–	–	–
COc1nc2ccc(Br)cc2cc1C(c1ccccc1)C(O)(CCCCN1CCNCC1)c1ccc2ccccc2c1 (stereo not drawn) [Compound 106]	–	1.98 µg/mL (≈ 3.17 µM)	1.98 µg/mL (≈ 3.17 µM)	–	–	1.98 µg/mL (≈ 3.17 µM)	1.98 µg/mL (≈ 3.17 µM)	1.98 µg/mL (≈ 3.17 µM)	–	–
COc1nc2ccc(Br)cc2cc1C(c1ccccc1)C(O)(CCCCN1CCCCC1)CCC(C)C (single isomer, unassigned) [Compound 124]	–	1.79 µg/mL (≈ 3.15 µM)	2.26 µg/mL (≈ 3.98 µM)	–	–	9 µg/mL (≈ 15.9 µM)	3.58 µg/mL (≈ 6.31 µM)	9 µg/mL (≈ 15.9 µM)	–	–
COc1nc2c(C)c(Br)ccc2cc1C(c1ccccc1)C(O)(CCCCN(C)C)c1ccc2ccccc2c1 (racemic) [Compound 81]	–	9.47 µg/mL (≈ 15.8 µM)	4.75 µg/mL (≈ 7.95 µM)	–	–	1.89 µg/mL (≈ 3.16 µM)	9.47 µg/mL (≈ 15.8 µM)	1.89 µg/mL (≈ 3.16 µM)	–	–
COc1nc2ccc(Br)cc2cc1C(c1ccccc1)C(O)(CCCCN1CCNCC1)c1ccc2ccccc2c1 (stereo not drawn) [Compound 107]	1.98 µg/mL (≈ 3.17 µM)	–	0.39 µg/mL (≈ 0.624 µM)	1.98 µg/mL (≈ 3.17 µM)	1.98 µg/mL (≈ 3.17 µM)	–	–	–	1.98 µg/mL (≈ 3.17 µM)	–
CNCCCC(O)(c1ccc(F)cc1)C(c1ccccc1)c1cc2cc(Br)ccc2nc1OC (stereo not drawn) [Compound 69]	–	1.7 µg/mL (≈ 3.25 µM)	–	7.39 µg/mL (≈ 14.1 µM)	9.3 µg/mL (≈ 17.8 µM)	6.59 µg/mL (≈ 12.6 µM)	–	–	–	1.65 µg/mL (≈ 3.15 µM)
COc1nc2ccc(Br)cc2cc1C(c1ccccc1)C(O)(CCCCN(C)C(C)C)c1ccccc1 (single isomer, unassigned) [Compound 89]	–	11.2 µg/mL (≈ 19.9 µM)	2.24 µg/mL (≈ 3.99 µM)	–	–	8.9 µg/mL (≈ 15.8 µM)	11.2 µg/mL (≈ 19.9 µM)	11.2 µg/mL (≈ 19.9 µM)	–	–
COc1nc2ccc(Br)cc2cc1C(c1ccccc1)C(O)(CCCCN(C)C)CCCc1ccccc1 (single isomer, unassigned) [Compound 144]	–	9.12 µg/mL (≈ 15.8 µM)	2.29 µg/mL (≈ 3.98 µM)	–	–	1.82 µg/mL (≈ 3.16 µM)	1.82 µg/mL (≈ 3.16 µM)	1.82 µg/mL (≈ 3.16 µM)	–	–

The next lines start with the values.

IC90 [1]	IC90 (μg/ml) STA 29213 [2]	IC90 (μg/ml) SPN 6305 [3]	IC90 [4]	IC90 [5]	IC90 (μg/ml) SPY 8668 [1]	IC90 (μg/ml) PAE 27853 [4]	IC90 (μg/ml) EFA 29212 [5]	IC90 ([2]; Staphylococcus aureus, ATCC29213, Staphylococcus aureus (ATCC29213), read-out: IC90 (μg/ml) STA 29213)	IC90 ([3]; Streptococcus pneumoniae, ATCC6305, Streptococcus pneumoniae (ATCC6305), read-out: IC90 (μg/ml) SPN 6305)	SMILES
–	21.57 µg/mL (≈ 35.5 µM)	9.64 µg/mL (≈ 15.9 µM)	–	–	9.64 µg/mL (≈ 15.9 µM)	9.64 µg/mL (≈ 15.9 µM)	9.64 µg/mL (≈ 15.9 µM)	–	–	COc1nc2ccc(Br)cc2cc1C(c1ccc(Cl)cc1)C(O)(CCCCN1CCCCC1)c1ccccc1 (single isomer, unassigned) [Compound 170]
–	1.85 µg/mL (≈ 3.17 µM)	0.41 µg/mL (≈ 0.703 µM)	–	–	1.47 µg/mL (≈ 2.52 µM)	1.85 µg/mL (≈ 3.17 µM)	1.85 µg/mL (≈ 3.17 µM)	–	–	COc1nc2ccccc2cc1C(c1cccc(Br)c1)C(O)(CCCCN(C)C)c1ccc2ccccc2c1 (single isomer, unassigned) [Compound 159]
–	7.7 µg/mL (≈ 16 µM)	1.5 µg/mL (≈ 3.11 µM)	–	–	38.3 µg/mL (≈ 79.4 µM)	38.3 µg/mL (≈ 79.4 µM)	38.3 µg/mL (≈ 79.4 µM)	–	–	COc1nc2ccc(C)cc2cc1C(c1ccccc1)C(O)(CCCCCN(C)C)c1ccccc1 (single isomer, unassigned) [Compound 152]
–	2.03 µg/mL (≈ 3.16 µM)	0.91 µg/mL (≈ 1.42 µM)	–	–	0.91 µg/mL (≈ 1.42 µM)	2.03 µg/mL (≈ 3.16 µM)	2.03 µg/mL (≈ 3.16 µM)	–	–	COc1nc2ccc(Br)cc2cc1C(c1ccc(Cl)c(Cl)c1)C(O)(CCCCN1CCCCC1)c1ccccc1 (single isomer, unassigned) [Compound 173]
